The results in this text go back to patent US20240251790A1 (priority 2021, published 2024).

What all share (format): cell-based
One experiment concerns yeast and mold (YM).
Experiment [1] has as its system total microbial count (APC).
Another experiment has as its system coliforms (ECC).

As to Percitric acid [PCA], in the experiment on yeast and mold (YM), the “effect on YM” value was “minimal effect”. In experiment [1], the “efficiency against APC” value is listed as “efficient”. In the experiment with coliforms (ECC), the “efficiency against ECC” value was “efficient”.
